Read-outs that look alike come from different tables or passages of the source.
How the values were obtained:
[1] = tested on: 3D7-strain P. falciparum asexual parasites; assay: P. falciparum asexual growth inhibition assay (Pf GIA); format: cell-based, Plasmodium falciparum; conditions: dose response confirmation; read-out: Pf asexual growth inhibition assays IC50
Procedure, shortened: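 LDH readout: absorbance at 650 nm after 10 min at room temperature with lactate/APAD/NBT/diaphorase mix on thawed plates. Cultures (0.25% parasitemia, 2% hematocrit) were treated 72 h at 37°C in low-oxygen gas. Inhibition was normalised to 50 μM chloroquine and DMSO; n=3 biological replicates.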

HepG2 cells = assay: HepG2 cytotoxicity assay; conditions: for IC50: read-out: HepG2 cytotoxicity assay IC50, dose response confirmation; for Pb ODA (this manuscript) HepG2 cytoxicity: HepG2 cytotoxicity listed with the Pb ODA data set (this manuscript)
Procedure, shortened: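 Here viability after a 48 h compound incubation (37°C, humidified 5% CO2) is measured by fluorescence and expressed as percent inhibition, with doxorubicin at 50 μM and DMSO as the bounding controls.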

[2] = tested on: P. berghei ookinete development; conditions: for % inhibition, Replicate A / % inhibition, Replicate B: primary screen at 1 μM
[3] = unified HepG2 value across the three screens
[4] = read-out: Pb ODA IC50, this manuscript
[5] = read-out: Pb Ookinete development assay IC50, dose response confirmation
[6] = read-out: Pb ODA (this manuscript) IC50, P. berghei ookinete development assay, this manuscript
[7] = HepG2 values of the three screens unified

Row | SMILES | IC50 [1] [nM] | IC50 (HepG2 cells) [µM] | Unified cytotox (HepG2 cells; [3]) [µM] | Is compound selective in assay? Pb ODA active? ([2]; 1: YES, 0: NO) | % inhibition, Replicate A [2] [%] | % inhibition, Replicate B [2] [%] | IC50 [2, 4] [nM] | IC50 [2, 5] [nM] | Pb ODA (this manuscript) HepG2 cytoxicity (HepG2 cells) [µM] | Is compound selective in assay? Pb ODA active? [2] | IC50 [2, 6] [nM] | HepG2 cytoxicity (Pb ODA, this manuscript) (HepG2 cells) [µM] | Unified cytotox (HepG2 cells; [7]) [µM] | % inhibition, Replicate A ([2]; 1 µM) [%] | % inhibition, Replicate B ([2]; 1 µM) [%] | Unified cytotox (HepG2 cells) [µM]
1 | Cc1ccc(Cn2c(N3CCC(C(=O)NCc4ccccn4)CC3)nc3ccccc32)cc1 [TCMDC-125442] | 469 | 69.2 | 69.18 | 1 (1: YES) | 48.51 | 58.27 | 1180 | 1180 | – | – | – | – | – | – | – | –
2 | CCOC(=O)c1c(CN2CCCC2)n(-c2ccccc2)c2cc(Br)c(O)cc12 [TCMDC-124122] | 658 | 71.6 | 71.61 | 0 (0: NO) | 64.42 | 39.97 | 7760 | 7760 | – | – | – | – | – | – | – | –
3 | Br.CC1(C)NC(N)=NC(=N)N1OCCCOc1cccc(Cl)c1 [TCMDC-131762] | < 0.2 | 0.001 | – | – | 47.79 | 53.67 | – | 2100 | 0.001 | 0 (key: 1: YES; 0: NO) | 2100 | – | – | – | – | –
4 | Cc1[nH]c(C)c(-c2ccc(-c3cc(C(F)(F)F)cc(C(F)(F)F)c3)nc2)c(=O)c1Br [TCMDC-136015] | 24 | 1.26 | – | 1 (1: YES) | 84.59 | 96.22 | 110 | 107 | – | – | – | 1.26 | 1.26 | – | – | –
5 | Cc1[nH]c(C)c(-c2ccc(-c3cccc(C(F)(F)F)c3)nc2)c(=O)c1Br [TCMDC-135911] | 45 | 100 | – | 1 (1: YES) | 105.47 | 112.19 | – | 400 | – | – | – | – | 100.00 | – | – | –
6 | Cc1cc(=O)c(-c2ccc(Oc3cccc(C(F)(F)F)c3)cc2)c(C)[nH]1 [TCMDC-133308] | 385 | 14.5 | – | – | – | – | – | 733 | 14.45 | 1 (key: 1: YES; 0: NO) | 730 | – | – | 59.11 | 56.29 | –
7 | CCc1cc2c3c(N)nc(N)nc3ccc2n1C(C)(C)C [TCMDC-137306] | 3.2 | 0.0017 | – | 0 (0: NO) | 81.63 | 92.90 | 1080 | 1080 | – | – | – | 0.0017 | 0.0017 | – | – | –
8 | CC(=O)c1ccc(NC(=O)Nc2ccc(N(C)c3ccnc(Nc4cccc(CS(C)(=O)=O)c4)n3)cc2)cc1 [TCMDC-138736] | 607 | 2.11 | 2.11 | 1 (1: YES) | 94.55 | 90.04 | 200 | 202 | – | – | – | – | – | – | – | –
9 | Cc1cc(C(=O)NC2CCN(CC3(c4ccccc4)CCCCC3)CC2)on1 [TCMDC-124832] | < 0.2 | 13.5 | 13.49 | 1 (1: YES) | 102.69 | 91.64 | 610 | 613 | – | – | – | – | – | – | – | –
10 | CCCCCCCc1ccc(-c2c(C)[nH]c(C)c(Cl)c2=O)cn1 [TCMDC-135816] | 355 | 30.9 | – | 1 (1: YES) | 56.53 | 81.98 | 580 | 581 | – | – | – | 30.90 | 30.90 | – | – | –
11 | COc1ccc2nccc([C@@H](O)CN3C4CCC3CC(NCc3ccc5c(n3)NC(=O)CS5)C4)c2n1.Cl (some centres unmarked) [TCMDC-134697] | 1060 | 38.9 | – | 0 (0: NO) | 46.01 | 53.20 | – | 4000 | – | – | – | 38.90 | 38.90 | – | – | –
12 | Cl.Oc1cc(-c2nc(-c3ccccc3)[nH]c2-c2ccncc2)ccc1Cl [TCMDC-139660] | 1790 | 9.77 | – | – | 79.35 | 69.44 | 1760 | 1760 | – | 0 (key: 1: YES; 0: NO) | – | – | – | – | – | 9.77
13 | Cc1[nH]c(C)c(-c2ccc(-c3cccc(OC(F)(F)F)c3)nc2)c(=O)c1Cl [TCMDC-136286] | 258 | 8.51 | – | 1 (1: YES) | 104.87 | 108.75 | 300 | 303 | – | – | – | 8.51 | 8.51 | – | – | –
14 | CCN(C)C(=O)n1ncc2c3c(N)nc(N)nc3ccc21 [TCMDC-137828] | 86 | 0.22 | – | – | 30.59 | 54.76 | – | 2560 | 0.22 | 0 (key: 1: YES; 0: NO) | 2560 | – | – | – | – | –
15 | COc1ccc2ncc(Cl)c(CCN3CCC(NCc4ccc5c(n4)NC(=O)CS5)CC3)c2c1.Cl [TCMDC-141807] | 379 | 15.5 | – | 1 (1: YES) | 68.31 | 67.95 | 1340 | 1340 | – | – | – | 15.49 | 15.49 | – | – | –
16 | CCn1cc(C(=O)O)c(=O)c2cc(F)c(N3CCN(S(=O)(=O)c4ccc(N)cc4)CC3)cc21 [TCMDC-125809] | 1690 | 100 | 100.00 | 1 (1: YES) | 58.34 | 60.71 | 980 | 978 | – | – | – | – | – | – | – | –
17 | CC1CN(Cc2ccc(-c3ccc(-c4nc5ccccc5[nH]4)cc3)cc2)CC(C)O1.O=C(O)C(F)(F)F (centres unmarked) [TCMDC-133828] | 1140 | 30.2 | – | – | 97.54 | 72.23 | – | 868 | 30.20 | 1 (key: 1: YES; 0: NO) | 870 | – | – | – | – | –
18 | Cc1[nH]c(C)c(-c2ccc(-c3ccc(Cl)cc3)nc2)c(=O)c1Br [TCMDC-136159] | 625 | 100 | – | 1 (1: YES) | 98.54 | 60.48 | – | 940 | – | – | – | – | 100.00 | – | – | –
19 | Cc1noc(C)c1-c1ccc2c(Nc3ccc(Cl)cc3)c(C(N)=O)cnc2c1.Cl [TCMDC-136010] | 53 | 4.84 | – | – | 77.30 | 54.77 | – | 6660 | 4.84 | 0 (key: 1: YES; 0: NO) | 6660 | – | – | – | – | –

From paper PMC6753678, “Fueling Open Innovation for Malaria Transmission-Blocking Drugs: Hundreds of Molecules Targeting Early Parasite Mosquito Stages” (Frontiers in Microbiology, 2019)
